# Results from patent US20030152910A1, “Method for identification and quantification of kinase inhibitors” (priority 1999, published 2003).
# “And” between values parts separate entries of the source, which are not always exact repeats. Equal entries are not always repeated. Where two headings read alike, the source gives them in different places.
# Columns and labels:
# [1] = tested on: Non-transfected 293 cells devoid of UL97 kinase activity; assay: Growth inhibition of non-transfected 293 cells by GCV (FIG. 11B); assay type: cell-based, human
# [2] = tested on: UL97-transfected 293 cells (293UL); assay: Growth inhibition of 293UL cells by GCV (FIG. 11A); assay type: cell-based, human; settings: for IC50: grown 90 h in presence of GCV
# Description: 293 cells transfected with pUL97 expression construct (pcDNA3-UL97; see above under 2.1.) were grown for 14 d in presence of geneticin (750 μg/ml). Individual clones were isolated (minimal dilution), re-tested for geneticin resistance and for sensitivity to 100 μM GCV. Clones identified as geneticin resistant and GCV-sensitive were expanded and stored frozen in aliquots for further experiments, after having verified by Western blot their capacity to express UL97 protein.
# 293UL cells were routinely grown in DMEM supplemented with 10% FCS, glutamine (1%), pyruvate (1%), geneticin (final 0.5 mg G418/ml culture), and penicillin/streptomycin (1%). Medium was changed every 3-4 d, and cells were subcultured before reaching confluency by trypsin/EDTA treatment (exposure of adherent cells to 5 mg/ml trypsin and 2 mg/ml EDTA, dissolved in sterile 0.85% NaCl) and re-seeding in at least 5-fold dilution. Cells were maximally 10 times subcultured before a new frozen batch was used.
# For routine antiproliferative assays, 293 UL cells were suspended at 13.8×10^3 cells/ml in complete medium, and 145 μl/well (2000 cells) of this suspension were seeded in 96-well flat-bottom plates (Nunclon #167008). After attachment of the cells for 24 h, drugs were added: All wells received 5 μl GCV (4 mM in complete medium, final concentration 100 μM), and each 3 wells received 50 μl compound (40 μM in complete medium+0.4% DMSO). A control series received 50 μl 40 μM compound only in the absence of GCV. Another control plate, which had received cells or medium only, was glutaraldehyde-fixed or frozen (see below) at the time of drug addition and stained for quantitation of cell density.
# Cells were further incubated for 72 h and then analyzed for proliferation (staining with methylene blue or fluorescent dyes, see section 2.4).
# A) UL97-transfected 293 cells 1,2,3,4: individual IC50 profiles (averages of triplicates); cells grown for 90 h in presence of GCV.
# [3] = target: T1, human cytomegalovirus UL97 protein kinase (Human cytomegalovirus, UniProt P16788); assay: UL97 in-cell-activity assay (transfected 293 cells + GCV; colour conversion / LDH read-out); assay type: cell-based
# T1 construct: expressed in transfected cells
# Description: Human embryonic kidney cells 293 (ATCC CRL-1573), as cultivated with DMEM medium containing 5% fetal calf serum (FCS), were harvested by trypsinization, rinsed with PBS and seeded in 96-well plates at a cell number of 20,000 per well.
# Transfection (Lipofectamin Plus reagents, GibcoBRL) was performed at a cell layer confluency of 50-75%. For this, identical transfection conditions were chosen for 24 wells of the 96-well plate to obtain determinations over a 8-well line in triplicate. One transfection set-up for 24 wells was composed as follows:
# Meanwhile, culture media of the 96-well plates were removed by the use of a multichannel pipette and a 50-μl volume of fresh DMEM-0% FCS was given in each well. Then, 25 μl of each transfection set-up was added per well. Plates were incubated for 5 h at 37° C. in a 5% CO2 atmosphere. Subsequent to this incubation, a 125-μl volume of DMEM-10% FCS was added per well and incubated over night at 37° C. in a 5% CO2 atmosphere.
# Transfection media were removed from the cells by the use of a multichannel pipette. […]
# Visual and photometric determinations of the colour conversion of the phenol red-supplemented culture medium was performed by the use of a computer scanner and an ELISA reader (OD 560 nm).
# Measurement of the lactate dehydrogenase (LDH) acitivity in the residual cell layer was performed with the CytoTox 96 Non-Radioactive Cytotoxicity (Promega). […] Thereafter, 50 μl of stop buffer was added and the colour reaction was quantitated by the use of an ELISA reader (OD 490 nm). […]
# Five days after addition of the substances, the read-out of signals was performed by the photometric quantification of the colour conversion of the culture medium and, for comparison, by the measurement of LDH activity in the residual cell layers. Qualitative/semi-quantitative illustrations are given by computer scanning figures in (a) for colour conversion, and in (b) for LDH activity. Quantitative values are presented as the results of photometric determinations in (c) for colour conversion, and in (d) for LDH activity. […]
# [4] = tested on: 293 cells transfected with wild-type or mutant pUL97 (K355M catalytically inactive); assay type: cell-based, human; settings: 5 nM to 500 nM inhibitor, GCV 5-40 μM, wild-type and mutant pUL97, LDH 5 d posttransfection
# Excerpt: If a test compound is capable of inhibiting the kinase, but additionally has a cytotoxic activity, no rescue from cell death would be observed. Thus, the method of the invention preferably comprises the additional step (e) distinguishing between (i) noncytotoxic test compounds having kinase inhibiting properties and (ii) test compounds having kinase inhibiting properties but additional cytotoxic side effects. Furthermore, the effect of a given test compound may be determined at several different concentrations of the test compound in order to obtain a more accurate information of the kinase inhibiting properties and possible unwanted cytotoxic side effects. […] In this manner, the concentration dependency and the target specificity of the inhibitory effect of the test compound and the concentration dependency of a possible cytotoxic effect may be determined together.
# Substrate (e.g. ganciclovir) is then added in an appropriate concentration to transfected cells (as indicated in the diagram). […] As a measurement for cell death, either the colour conversion of the medium (containing phenol red as a pH indicator) can the quantified photometrically, or the LDH activity within the residual cell layer can be determined (resulting in low activities when extensive cell death has occurred). Other methods of quantification are also possible (e.g. measurement of cell proliferation). […]
smiles,measurement,setting,value
"Nc1nc(O)c2ncn(COC(CO)CO)c2n1 [GCV, ganciclovir]",IC50,"[1]; Homo sapiens, HEK293, non-transfected 293 cells",3700 µM
same,effect on proliferation of wild-type 293 cells,[1]; up to 100 μM GCV,not affected
same,reduction of cell growth,"[2]; 100 μM GCV, 3 d, methylene blue",50%
same,IC50,"[2]; Homo sapiens, HEK293, 90 h, average ± s.d. of 4 profiles, read-out: IC50 growth inhibition, average",26 ± 11 µM
same,IC50,[2]; read-out: individual IC50 profiles (averages of triplicates),41 µM and 19 µM and 17 µM
Cn1c2ccccc2c2c3c(c4c5ccccc5n(CCC#N)c4c21)CNC3=O [GÖ6976],specific inhibition of UL97 activity,"[3]; 5 nM and 50 nM inhibitor, GCV 2.5 and 5 μM, pl18neo-UL97, LDH activity after 5 days",stronger at the 50-nM than at the 5-nM concentration
same,identification as UL97-specific inhibitor,"[3]; 50 nM inhibitor, GCV 1.25-160 μM, 5 days, colour conversion and LDH activity",identified as UL97-specific inhibitors
same,inhibition of UL97 activity at the highest concentration (decrease in LDH activity indicates cytotoxicity),"[3]; 500 nM inhibitor, GCV 2.5 and 5 μM, LDH activity after 5 days",markedly decreased
"CN[C@@H]1C[C@H]2O[C@@](C)([C@@H]1OC)n1c3ccccc3c3c4c(c5c6ccccc6n2c5c31)C(=O)NC4 [STP, staurosporine]",inherent (nonspecific) cytotoxicity versus specific pUL97 inhibition,[4],nonspecific cytotoxicity
